In PMC3742649 (Endocrine, 2013):
Entries after “also recorded” stand apart in the source; their conditions may differ. Blank lines part the entries; values can stand above or below the compound they belong to. Where a SMILES comes first, the peptide text is derived from it.

Key:
[1] = biological target: T1, novel non-AT1, non-AT2 angiotensin binding site (neurolysin) (Rattus norvegicus, UniProt P42676); experiment: Competition binding of 125I-Sar1,Ile8 Ang II in rat testis membranes; settings: for inhibition of 125I-SI Ang II binding in testis at concentrations up to 1 mM: rat testis
T1 sequence (P42676 38-704): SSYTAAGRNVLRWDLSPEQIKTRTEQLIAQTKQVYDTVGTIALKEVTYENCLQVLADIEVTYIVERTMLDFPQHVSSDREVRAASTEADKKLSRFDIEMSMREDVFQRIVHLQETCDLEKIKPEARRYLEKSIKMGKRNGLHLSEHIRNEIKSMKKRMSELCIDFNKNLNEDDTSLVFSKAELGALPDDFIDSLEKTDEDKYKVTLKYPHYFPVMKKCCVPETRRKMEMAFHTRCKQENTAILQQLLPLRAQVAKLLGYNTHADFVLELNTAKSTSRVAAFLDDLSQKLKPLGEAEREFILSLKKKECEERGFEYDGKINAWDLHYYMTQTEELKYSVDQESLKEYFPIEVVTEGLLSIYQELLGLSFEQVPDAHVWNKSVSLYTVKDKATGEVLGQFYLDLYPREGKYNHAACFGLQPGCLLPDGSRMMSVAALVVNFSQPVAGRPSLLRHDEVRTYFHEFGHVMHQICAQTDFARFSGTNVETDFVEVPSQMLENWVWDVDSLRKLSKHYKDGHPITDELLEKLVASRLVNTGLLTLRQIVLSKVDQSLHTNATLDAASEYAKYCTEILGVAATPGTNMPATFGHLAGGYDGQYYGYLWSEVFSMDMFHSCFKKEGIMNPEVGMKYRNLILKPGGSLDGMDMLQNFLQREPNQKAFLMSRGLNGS

[2] = biological target: T1, novel non-AT1, non-AT2 angiotensin binding site (neurolysin); experiment: Competition binding of 125I-Sar1,Ile8 Ang II in rat brain membranes; settings: for inhibition of 125I-SI Ang II binding in brain at concentrations up to 1 mM: rat brain
neurolysin = settings: read-out: KI for neurolysin; reported value; cited from earlier work
[3] = listed as Proline-Isoleucine dipeptide

Compound: CC[C@H](C)[C@H](NC(=O)[C@H](CCCN=C(N)N)NC(=O)[C@H](CCCN=C(N)N)NC(=O)[C@H](CC(C)C)NC(=O)[C@H](Cc1ccccc1)NC(=O)CNC(=O)CNC(=O)[C@@H](N)Cc1ccc(O)cc1)C(=O)O [Dynorphin A (1–8)]
- IC50 [1]: 2200 nM

Compound: CC[C@H](C)[C@H](NC(=O)[C@@H]1CCCN1)C(=O)O [Pro-Ile, proline-isoleucine dipeptide] (H-Pro-Ile-OH)
- inhibition of 125I-SI Ang II binding in brain at concentrations up to 1 mM [2]: no inhibition; also recorded: failed to inhibit; also recorded: did not inhibit
- inhibition of 125I-SI Ang II binding in brain at concentrations up to 1 mM [2, 3]: inactive
- inhibition of 125I-SI Ang II binding in testis at concentrations up to 1 mM [1]: no inhibition; also recorded: failed to inhibit; also recorded: did not inhibit
- inhibition of 125I-SI Ang II binding in testis at concentrations up to 1 mM [1, 3]: inactive
- Ki (neurolysin): 90 µM

- IC50 ([2]; IC50 in brain, rat brain membranes, Figure 1 Panel A): 82.2 nM
- IC50 ([1]; IC50 in testis, rat testis membranes, Figure 1 Panel A): 126 nM
Compound: CC[C@H](C)[C@H](NC(=O)[C@@H]1CCCN1C(=O)[C@H](Cc1c[nH]cn1)NC(=O)[C@@H](NC(=O)[C@H](Cc1ccc(O)cc1)NC(=O)[C@@H](NC(=O)[C@H](CCCN=C(N)N)NC(=O)CNC)C(C)C)[C@@H](C)CC)C(=O)O [SI Ang II, Sar^1, Ile^8 angiotensin II]
